Measurements as given in US10487121B2, “D-peptide inhibitors of HIV entry and methods of use” (priority 2016, dated 2019).
Where two headings read alike, the source gives them in different places.

Assays:
[1] = target: JRFL (R5) luciferase reporter pseudovirions on HOS-CD4-CCR5; details: values marked * from Francis, et al. Bioconjugates, read-out: Antiviral potency JRFL (IC50); cited from earlier work
[2] = target: HXB2 (X4) luciferase reporter pseudovirions on HOS-CD4-CXCR4; details: values marked * from Francis, et al. Bioconjugates, read-out: Antiviral potency HXB2 (IC50); cited from earlier work
[3] = Rodent pharmacokinetics of PIE12-trimer and conjugates (Table 3 protocol); type: in vivo, Sprague Dawley rats; details: rats, 1.0 mg/kg, plasma, median; for half-life: read-out: T1/2 (converted)
Procedure: At each timepoint, plasma was obtained using lithium heparin.
Samples were spiked with an internal standard then precipitated with two volumes of 98% acetonitrile/2% Formic acid. Supernatants were analyzed by LC/MS/MS using an Agilent HPLC system (Waters X-Bridge BEH C18 column) paired to an AB Sciex API 3000 triple-quad mass spectrometer using MRM methods. Lipid conjugates required lower source temperatures (300° C. vs 500° C.) for improved reproducibility.

CC(=O)N[C@H](Cc1c[nH]cn1)C(=O)N1CCC[C@@H]1C(=O)N[C@@H]1CSSC[C@H](C(=O)N[C@H](CCC(=O)O)C(=O)N[C@H](CC(C)C)C(=O)NCC(=O)N[C@H](CCCCNC(=O)CCOCCOCCOCCOCCNC(=O)CCOCC(N)(COCCC(=O)NCCOCCOCCOCCOCCC(=O)NCCCC[C@@H](NC(=O)CNC(=O)[C@@H](CC(C)C)NC(=O)[C@@H](CCC(=O)O)NC(=O)[C@H]2CSSC[C@@H](NC(=O)[C@H]3CCCN3C(=O)[C@@H](Cc3c[nH]cn3)NC(C)=O)C(=O)N[C@H](CC(=O)O)C(=O)N[C@H](Cc3ccc(O)cc3)C(=O)N3CCC[C@@H]3C(=O)N[C@H](CCC(=O)O)C(=O)N[C@H](Cc3c[nH]c4ccccc34)C(=O)N[C@H](CCC(N)=O)C(=O)N[C@H](Cc3c[nH]c4ccccc34)C(=O)N[C@H](CC(C)C)C(=O)N2)C(N)=O)COCCC(=O)NCCOCCOCCOCCOCCC(=O)NCCCC[C@@H](NC(=O)CNC(=O)[C@@H](CC(C)C)NC(=O)[C@@H](CCC(=O)O)NC(=O)[C@H]2CSSC[C@@H](NC(=O)[C@H]3CCCN3C(=O)[C@@H](Cc3c[nH]cn3)NC(C)=O)C(=O)N[C@H](CC(=O)O)C(=O)N[C@H](Cc3ccc(O)cc3)C(=O)N3CCC[C@@H]3C(=O)N[C@H](CCC(=O)O)C(=O)N[C@H](Cc3c[nH]c4ccccc34)C(=O)N[C@H](CCC(N)=O)C(=O)N[C@H](Cc3c[nH]c4ccccc34)C(=O)N[C@H](CC(C)C)C(=O)N2)C(N)=O)C(N)=O)NC(=O)[C@@H](CC(C)C)NC(=O)[C@@H](Cc2c[nH]c3ccccc23)NC(=O)[C@@H](CCC(N)=O)NC(=O)[C@@H](Cc2c[nH]c3ccccc23)NC(=O)[C@@H](CCC(=O)O)NC(=O)[C@H]2CCCN2C(=O)[C@@H](Cc2ccc(O)cc2)NC(=O)[C@@H](CC(=O)O)NC1=O [PIE12-trimer]
IC50 [1]: 2.1 ± 0.28 nM | IC50 [2]: 0.72 ± 0.04 nM | AUC(0-inf) ([3]; rat, in vivo, IV): 0.168 µM·h | C0 ([3]; rat, in vivo, IV): 275 nM | clearance ([3]; rat, in vivo, IV, read-out: Cl (obs) (converted)): 13.9 mL/min/kg | half-life ([3]; rat, in vivo, IV): 33 min | Vd ([3]; rat, in vivo, IV, read-out: Vz (obs)): 0.7 L/kg | AUC(0-inf) ([3]; rat, in vivo, SC): 0.208 µM·h | Cmax ([3]; rat, in vivo, SC): 80 nM | Tmax ([3]; rat, in vivo, SC): 30 min | half-life ([3]; rat, in vivo, SC): 48.6 min | F ([3]; SC): 96%
